Measured values reported in patent US20160082130A1, “Dosage Forms and Methods for Diagnosing Sympathetic Nervous System Dysfunction” (priority 2014, published 2016).

What was measured:
healthy subjects = assay: apraclonidine 0.05% eye drop test in healthy control subjects (digital photographs, Image-J); assay type: in vivo, human
From the text: (§1) Patients with a diagnosis of GBS based on history and clinical exam were recruited for this study. Patients with diabetes were excluded from the study. Patients on medications or eye drops with either sympathetic or parasympathetic action were also excluded from the study. […] All patients had electrophysiological studies done in terms of nerve conduction studies at the time of their diagnosis. Patients on opioid therapy were not excluded. In total, five patients met the criteria for inclusion. Healthy control participants were recruited in outpatient clinics from partners and family members accompanying a person with an appointment. Participants with diabetes, ocular disease, previous ocular surgeries, and on sympathetic or parasympathetic medications or eye drops were also excluded from the study. Digital photographs of the subjects' eyes were obtained prior to the application of apraclonidine. A small pre-measured reference was used at the time of photography to help quantify measurements. Apraclonidine (0.05% drop) was added to the left eye and a follow up photograph was obtained some time (19-52 min) after the application of the drop. The digital photographs were analyzed with Image-J software (Schneider, C. A., et al., Nat. Methods 9:671-675, 2012) to determine pupillary diameter and palpebral fissure heights. Standard deviation of the measurements for error propagation was determined by repeated computer measurement of the pre-measured reference in a digital photograph. Palpebral fissure height was determined by measuring the vertical distance between the eyelids with the measurement going through the centre of each pupil. Pupillary diameter was determined with two measurements (horizontal and vertical) and an average denoted as OS or OD used for each pupil for further calculations. Pupillary response was quantified with the percentage ratio (D2−D1)/D1×100, where D1 and D2 represent the baseline anisocoria (D1=OS−OD) and the drug-induced anisocoria (D2=OS*−OD*) respectively.

[1] = tested on: patients with a diagnosis of GBS; assay: apraclonidine 0.05% eye drop test in patients with Guillain-Barré syndrome (digital photographs, Image-J); assay type: in vivo, human
From the text: as §1

## Nc1cc(Cl)c(NC2=NCCN2)c(Cl)c1 [apraclonidine, 2,6-dichloro-N-(4,5-dihydro-1H-imidazol-2-yl)benzene-1,4-diamine]
Healthy subjects; healthy subjects, 0.05% drop to one eye
  effect on pupillary diameter: no significant effect
Healthy subjects; healthy subjects, analysis of digital photographs
  effect on the pupils: either no effect or caused paradoxical miosis of the pupil
Healthy subjects; normal individuals, 0.05% drop to one eye
  effect on palpebral fissure height: did not have any significant effect
[1]; GBS patients with only ptosis, computer analysis of digital photographs
  amplification of palpebral fissure height difference after application: 1130% (±80%)
[1]; GBS patients with pupillary dysfunction, (D2-D1)/D1x100
  amplification of anisocoria after administration: 1124% (±324%)
[1]; five GBS patients, 0.05% drop to left eye, photograph 19-52 min after
  unmasking of bilateral ptosis: unmasked bilateral ptosis in all five GBS patients
[1]; five GBS patients, 0.05% drop to one eye
  unmasking of bilateral Horner's syndrome with dilation of miotic pupil: unmasked bilateral Horner's syndrome with dilation of miotic pupil in two of the five patients
[1]; photographic evidence from the subjects in this study
  unmasking of reverse ptosis of the lower eyelid: unmasks a reverse ptosis of the lower eyelid
